Target: C-X-C chemokine receptor type 4 (Homo sapiens, UniProt P61073)
Test: Antagonist activity at wild-type human CXCR4 expressed in COS7 cells co-expressing chimeric galphai assessed as inhibition of CXCL12-induced [3H]inositol-phosphate accumulation measured after 90 mins in presence of Myo-[2-3H]-inositol by scintillation proximity assay
Assay type: functional, cell-based, COS-7

Chain of C-X-C chemokine receptor type 4 (P61073 whole entry): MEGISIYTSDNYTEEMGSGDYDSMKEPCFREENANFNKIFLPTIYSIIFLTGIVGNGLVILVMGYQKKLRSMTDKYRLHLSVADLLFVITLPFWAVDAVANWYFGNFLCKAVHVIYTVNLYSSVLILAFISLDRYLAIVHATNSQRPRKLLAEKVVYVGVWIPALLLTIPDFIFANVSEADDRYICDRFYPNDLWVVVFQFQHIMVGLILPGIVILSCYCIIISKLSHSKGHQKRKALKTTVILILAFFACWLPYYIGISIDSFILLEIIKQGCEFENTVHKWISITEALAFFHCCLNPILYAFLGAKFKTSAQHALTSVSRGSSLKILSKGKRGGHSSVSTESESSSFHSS

With N=C(N)NCCCC[C@H]1C(=O)N(CCc2ccc3ccccc3c2)C[C@H]2SC[C@@H](CCNC(=N)N)C(=O)N21 the EC50 (read-out: EC50) was > 100 µM and the EC50 (read-out: pEC50 (converted)) was < 100 µM.
For N=C(N)NCCC[C@H]1C(=O)N(CCc2ccc3ccccc3c2)C[C@@H]2SC[C@H](CCNC(=N)N)C(=O)N21, the EC50 (read-out: EC50) was > 100 µM and the EC50 (read-out: pEC50 (converted)) was < 100 µM.
N=C(N)NCCCC[C@H]1C(=O)N(CCc2ccc3ccccc3c2)C[C@H]2SC[C@@H](CCCNC(=N)N)C(=O)N21 was tested, and the EC50 (read-out: EC50) was > 100 µM and the EC50 (read-out: pEC50 (converted)) was < 100 µM.
N=C(N)NCCCC[C@H]1C(=O)N(CCc2ccc3ccccc3c2)C[C@@H]2SC[C@H](CCCNC(=N)N)C(=O)N21 was tested, and the EC50 (read-out: EC50) was > 100 µM.
In the case of N=C(N)NCCCC[C@@H]1CS[C@@H]2CN(CCc3ccc4ccccc4c3)C(=O)[C@H](CCCNC(=N)N)N2C1=O, the EC50 (read-out: EC50) is reported as > 100 µM and the EC50 (read-out: pEC50 (converted)) is reported as < 100 µM.
N=C(N)NCCCC[C@H]1CS[C@H]2CN(CCc3ccc4ccccc4c3)C(=O)[C@H](CCCNC(=N)N)N2C1=O was tested, and the EC50 (read-out: EC50) was > 100 µM and the EC50 (read-out: pEC50 (converted)) was < 100 µM.
In the case of N=C(N)NCCCC1CSC2CN(Cc3cccc4ccccc34)C(=O)[C@H](CCCNC(=N)N)N2C1=O (mixture of isomers), the EC50 (read-out: EC50) is reported as > 100 µM.
N=C(N)NCCCC1CSC2CN(Cc3ccc4ccccc4c3)C(=O)[C@H](CCCNC(=N)N)N2C1=O (mixture of isomers) was tested, and the EC50 (read-out: EC50) was > 100 µM and the EC50 (read-out: pEC50 (converted)) was < 100 µM.
With N=C(N)NCCC[C@H]1C(=O)N(CCc2ccc3ccccc3c2)C[C@H]2SC[C@@H](CCNC(=N)N)C(=O)N21 the EC50 (read-out: EC50) was > 100 µM.
N=C(N)NCCCC[C@H]1C(=O)N(CCc2ccc3ccccc3c2)C[C@@H]2SC[C@H](CCNC(=N)N)C(=O)N21 was tested, and the EC50 (read-out: EC50) was > 100 µM and the EC50 (read-out: pEC50 (converted)) was < 100 µM.
With N=C(N)NCCCC1CSC2CN(Cc3ccc4ccccc4c3Br)C(=O)[C@H](CCCNC(=N)N)N2C1=O (mixture of isomers) the EC50 (read-out: EC50) was 61 µM.
